For orientation: IC50 means the concentration that gives 50% inhibition. For orientation: GI50 means the concentration giving 50% growth inhibition.

Drawing on ChEMBL document CHEMBL3877299, “Imidazopyridine-fused [1,3]-diazepinones part 2: Structure-activity relationships and antiproliferative activity against melanoma cells” (Eur J Med Chem, 2017), this text covers IC50 and GI50 for 25 molecules.

Structures are written as SMILES.

In one assay the target is Mitogen-activated protein kinase kinase kinase kinase 4 (Homo sapiens, UniProt O95819). Briefly: Inhibition of recombinant human HGK using Ulight-FLGFTYVAP as substrate after 90 mins by LANCE assay.
Mitogen-activated protein kinase kinase kinase kinase 4, sequence (O95819 whole entry): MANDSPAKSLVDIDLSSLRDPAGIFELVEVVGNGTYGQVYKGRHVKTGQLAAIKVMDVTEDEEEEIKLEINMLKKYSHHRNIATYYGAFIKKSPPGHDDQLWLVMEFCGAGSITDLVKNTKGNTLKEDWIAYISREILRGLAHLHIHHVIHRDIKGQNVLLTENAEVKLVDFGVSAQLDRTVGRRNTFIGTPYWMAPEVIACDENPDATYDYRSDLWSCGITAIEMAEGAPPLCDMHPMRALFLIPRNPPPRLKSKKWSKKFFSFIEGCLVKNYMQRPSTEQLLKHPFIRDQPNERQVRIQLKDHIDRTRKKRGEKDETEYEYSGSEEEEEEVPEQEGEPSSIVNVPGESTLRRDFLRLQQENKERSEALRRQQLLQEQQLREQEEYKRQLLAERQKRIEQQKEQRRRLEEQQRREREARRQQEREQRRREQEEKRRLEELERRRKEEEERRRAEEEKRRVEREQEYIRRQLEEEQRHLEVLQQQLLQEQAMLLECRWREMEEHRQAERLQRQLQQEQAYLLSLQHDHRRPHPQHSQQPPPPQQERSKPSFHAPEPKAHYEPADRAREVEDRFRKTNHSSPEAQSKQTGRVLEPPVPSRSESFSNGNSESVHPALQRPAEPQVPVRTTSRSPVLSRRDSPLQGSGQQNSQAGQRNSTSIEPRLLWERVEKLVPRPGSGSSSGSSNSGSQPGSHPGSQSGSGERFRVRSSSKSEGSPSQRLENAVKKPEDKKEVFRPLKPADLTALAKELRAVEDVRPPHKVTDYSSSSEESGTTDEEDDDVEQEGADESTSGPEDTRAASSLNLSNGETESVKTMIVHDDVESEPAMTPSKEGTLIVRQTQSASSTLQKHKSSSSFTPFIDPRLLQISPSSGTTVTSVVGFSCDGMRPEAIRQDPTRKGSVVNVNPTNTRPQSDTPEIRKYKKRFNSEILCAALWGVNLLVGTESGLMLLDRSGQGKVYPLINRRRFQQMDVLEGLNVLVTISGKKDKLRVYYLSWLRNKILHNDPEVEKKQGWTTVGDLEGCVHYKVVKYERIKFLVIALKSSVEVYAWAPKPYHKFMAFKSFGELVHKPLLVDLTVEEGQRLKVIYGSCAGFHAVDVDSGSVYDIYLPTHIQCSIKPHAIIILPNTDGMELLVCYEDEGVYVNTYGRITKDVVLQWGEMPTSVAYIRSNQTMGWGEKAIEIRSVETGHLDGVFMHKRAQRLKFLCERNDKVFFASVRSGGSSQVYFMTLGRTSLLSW
Settings: not given
(In general: TR-FRET usually uses a lanthanide donor and a delayed reading to cut background.)
With `CC(C)[C@@H]1NC(c2ccc(Br)cc2)=Nc2nc3ccccn3c2C1=O`, the IC50 came to 44 µM.
In the case of `C[C@H]1NC(c2ccc(Br)cc2)=Nc2nc3ccccn3c2C1=O`, the IC50 is over 100 µM.
For the molecule `CC(=O)Nc1ccc(C2=Nc3nc4ccccn4c3C(=O)[C@H](C)N2)cc1`, the half-inhibitory concentration (IC50) was over 100 µM.
On the same count and under the same terms, then `C[C@@H]1NC(c2ccc(-c3ccccc3)cc2)=Nc2nc3ccccn3c2C1=O`, with over 100 µM.

Tested on in a further assay: not listed separately
The experiment in a line: Cytotoxicity against human MDA-MB-435 cells assessed as growth inhibition after 48 hrs by MTT assay. As to conditions: MDA-MB-435, 48 h. It counts as functional.
`COc1ccc(C2=Nc3nc4ccccn4c3C(=O)[C@H](C)N2)cc1OC`: the GI50 is over 10 µM.
Still for that read-out and setting: in the case of `O=C(NCCCC[C@@H]1NC(c2ccc(Br)cc2)=Nc2nc3ccccn3c2C1=O)OCc1ccccc1` it was over 10 µM.
Take `Cc1ccccc1C1=Nc2nc3ccccn3c2C(=O)[C@H](C)N1`: the 50% growth inhibitory concentration (GI50) is over 10 µM.
Same read-out and setting: then `C[C@@H]1NC(c2cccc3ccccc23)=Nc2nc3ccccn3c2C1=O`, with 1.4 µM; and `NCCCC[C@@H]1NC(c2ccc(Br)cc2)=Nc2nc3ccccn3c2C1=O`, with over 10 µM; and `C[C@@H]1NC(c2ccc(F)cc2)=Nc2nc3ccccn3c2C1=O`, with over 10 µM.
On to `C[C@@H]1NC(c2ccc(C#N)cc2)=Nc2nc3ccccn3c2C1=O`, for which the GI50 is over 10 µM.
`C[C@H]1C(=O)c2c(nc3ccccn23)N=C(c2ccc(Br)cc2)N1C`: the GI50 was over 10 µM.
On the same count and under the same terms, then `CC(C)[C@@H]1NC(c2ccc(Br)cc2)=Nc2nc3ccccn3c2C1=O`, with 50 µM; and `CCOC(=O)c1ccc(C2=Nc3nc4ccccn4c3C(=O)[C@H](C)N2)cc1`, with over 10 µM.
Consider `C[C@@H]1NC(c2ccc(I)cc2)=Nc2nc3ccccn3c2C1=O`, for which the GI50 turned out to be 1.35 µM.
For the molecule `O=C1c2c(nc3ccccn23)N=C(c2ccc(Br)cc2)N[C@H]1CO`, the GI50 was in the range of 0.95 to 1 µM.
Take `C[C@@H]1NC(c2cccc(Br)c2)=Nc2nc3ccccn3c2C1=O`: the GI50 is over 10 µM.
As to `C[C@@H]1NC(c2ccccc2Br)=Nc2nc3ccccn3c2C1=O`, the GI50 stood at 8.35 µM.
With `O=C1CNC(c2ccc(Br)cc2)=Nc2nc3ccccn3c21`, the GI50 was over 10 µM.
In the case of `C[C@H]1NC(c2ccc(Br)cc2)=Nc2nc3ccccn3c2C1=O`, the GI50 is over 100 µM.
Consider `CC(=O)Nc1ccc(C2=Nc3nc4ccccn4c3C(=O)[C@H](C)N2)cc1`, for which the GI50 lay within 10 to 100 µM.
Regarding `CC[C@@H]1NC(c2ccc(Br)cc2)=Nc2nc3ccccn3c2C1=O`, the GI50 was determined as 1 µM.
`C[C@@H]1NC(c2ccc(C(F)(F)F)cc2)=Nc2nc3ccccn3c2C1=O`: the concentration for 50% growth inhibition (GI50) is over 10 µM.
For `C[C@@H]1NC(c2ccc(-c3ccccc3)cc2)=Nc2nc3ccccn3c2C1=O`, the GI50 was found to be 40 µM.
Regarding `CNC(=O)c1ccc(C2=Nc3nc4ccccn4c3C(=O)[C@H](C)N2)cc1`, the concentration for 50% growth inhibition (GI50) was over 10 µM.
On to `C[C@@H]1NC(c2cccc(Cl)c2)=Nc2nc3ccccn3c2C1=O`, for which the GI50 came to 10 µM.
Take `C[C@@H]1NC(c2ccccc2Cl)=Nc2nc3ccccn3c2C1=O`: the GI50 amounted to 6.5 µM.
As for `C[C@@H]1NC(c2ccc(Br)cc2)=Nc2nc3ccccn3c2[C@H]1O`, the GI50 is over 10 µM.
Same read-out and setting: then `C[C@@H]1NC(c2ccc(Cl)c(C(F)(F)F)c2)=Nc2nc3ccccn3c2C1=O`, with over 10 µM.
